The conditions of the data set: rcm bond.

Each structure is given as a SMILES string. Read-outs that look alike come from different tables or passages of the source.

For the setting “from C=CCCCCCc1ncccc1C(=O)N[C@@H](CC=C)C(=O)N(C)OC, Grubbs catalyst 2nd generation, DCE, 9.93 mM, 95.0 °C, 48.0 h”, `CON(C)C(=O)[C@@H]1CC=CCCCCCc2ncccc2C(=O)N1` yielded a ring closure, yield of all isomers of 65.1%.
Turning to `CON(C)C(=O)[C@@H]1CC=CCCCCCc2ccccc2C(=O)N1`, under “from C=CCCCCCc1ccccc1C(=O)N[C@@H](CC=C)C(=O)N(C)OC, Grubbs 2nd generation catalyst, DCM, 6.37 mM, 48.0 °C, 16.0 h”, the ring closure, yield of all isomers amounted to 49.4%.
For the compound `CON(C)C(=O)[C@@H]1CC=CCOCCOCc2ccccc2C(=O)N1`, the ring closure, yield of all isomers runs as follows: (from C=CCOCCOCc1ccccc1C(=O)N[C@@H](CC=C)C(=O)N(C)OC, Grubbs 2nd generation catalyst, DCE, 6.64 mM, 80.0 °C, 10.0 h) 86.7%; (from C=CCOCCOCc1ccccc1C(=O)N[C@@H](CC=C)C(=O)N(C)OC, Grubbs II, 1,2-dichloroethane, 6.64 mM, 80.0 °C, 10.0 h) 91.3%.
